“Also recorded” adds a separate entry of the source.
Tests used:
[1] = system: ATR; experiment: Western blot of ATR activity (Chk1 phosphorylation at Ser317) in HeLa cells; assay type: cell-based, human; settings: 10 Gy IR+Gö6976 1 μM
Protocol: (§1) Protein extract (5-60 μg) was added to 4× gel loading buffer and 10× denaturing solution (Invitrogen) in appropriate proportions, and samples were incubated at 70° C. for 10 min. Samples were run at 200V for 1 hr on a 4-12% Bis-tris gradient gel (Invitrogen). After electrophoresis, samples were transferred for 1.5 hr (350 mA) to a Nitrocellulose membrane (Millipore) using a submerged transfer apparatus (Bio-Rad). Membranes were then blocked with 5% milk in Tris-buffered saline with 0.1% tween (TBST) and probed overnight at 4° C. with the following antibodies: anti-zebrafish Chk1 (diluted 1:200), anti-zebrafish Chk2 (1:200), anti-P-Cdc2 (1:1000), anti-actin (1:2000), anti-human ATR (1:500) and Stressgen anti-human-caspase-3 (1:500) for zebrafish immunoblots; and anti-caspase-2 (1:200), Upstate anti-caspase-3 (1:500), anti-P-ATM (1:500), anti-ATM (1:500), Santa Cruz anti-human Chk1 (1:1000), Santa Cruz anti-human Chk2 (1:1000), anti-P-Chk1 (1:500), anti-P-Chk2 (1:500), anti-P-H2A.X (1:2000), anti-P-cdc25C (1:1000), anti-P-HSP27 (1:1000), anti-HSP27 (1:1000), anti-P-Cdc2 (1:1000), anti-p53 (1:1000) and anti-GAPDH (1:5000) for immunoblots of human tumor cell lysates. Detailed references for all primary antibodies can be found in the ‘Antibodies’ section elsewhere herein.

[2] = system: caspase-2; experiment: Western blot of caspase-2 cleavage in human cancer cells; assay type: cell-based
Protocol: as §1

[3] = system: p53^e7/e7 mutant embryos; experiment: Morpholino screen for suppressors of p53^e7/e7 radioresistance (live AO assay); assay type: in vivo, zebrafish; settings: p53^e7/e7, 12.5 Gy at 18 hpf, 7.5 hpIR
Protocol: We used morpholino antisense oligonucleotides (MOs) to knock down the expression levels of 8 zebrafish S- and G2-checkpoint kinases in p53^e7/e7 mutant embryos and assessed the ability of each knockdown to restore cell death (AO reactivity) at 7.5 hours post-IR (hpIR). We also tested several double-knockdown combinations, as well as knockdowns of non-kinase checkpoint regulators (p21^waf1/cip1 and smc1). For each knockdown, we scored a minimum of 50 embryos and quantified AO staining in at least 5 embryos. To avoid the isolation of false-positives, we adjusted the concentrations of each MO to the maximal dose compatible with normal embryonic development in the p53^e7/e7 background.
Morpholino oligonucleotides (MOs) synthesized by Gene Tools™ LLC, were resuspended in sterile water at a concentration of 1 mM and delivered into zebrafish embryos at the one-cell stage by microinjection. […] For each previously unpublished MO, the working concentration was determined as the highest dose compatible with normal zebrafish development in the p53^e7/e7 background (maximal subtoxic concentration). […]
Live zebrafish embryos were dechorionated in pronase (2.0 mg/mL in egg water) for 3 to 5 min and rinsed five times in egg water at 18 hpf. […] Lateral images of each zebrafish were acquired on a Zeiss Axioplan2 fluorescence microscope (5× lens), using OpenLab software and a Hammamatsu C4742-95 digital camera. […]

Compound | phosphorylated Chk1 at Ser317 (readout for ATR activity) [1] | caspase-2 activation ([2]; HeLa, 2 Gy, Gö6976 500 nM for 24 hbIR) | caspase-2 cleavage ([2]; HeLa, 2 or 3.2 Gy, Gö6976 1 μM applied 1 hbIR) | caspase-2 activation ([2]; HeLa, 3.2 Gy, Gö6976 1 μM applied 6 hbIR) | caspase-2 cleavage ([2]; HeLa, 10 Gy, 24 hpIR, Gö6976 1 μM applied 1 hbIR) | caspase-2 cleavage ([2]; TP53+/+ HCT116 cells, IR+Gö6976) | caspase-2 cleavage versus single- or no-treatment controls ([2]; TP53 null or mutant lines (TP53-/- HCT116, SAOS2, MDA-MB-435, LN-428), 10 Gy IR+Gö6976) | AO reactivity restored, of the p53+/+ response [3]
Cn1c2ccccc2c2c3c(c4c5ccccc5n(CCC#N)c4c21)CNC3=O [Gö6976] | synergistic increases | synergistic activation of caspase-2 was observed | no detectable cleavage | as efficiently as the standard 10 Gy protocol | readily apparent; also recorded: strong caspase-2 cleavage | inability to cleave caspase-2 | increases in caspase-2 cleavage | 
chk1 MO: morpholino against zebrafish chk1 atg/5'UTR, aggcacagccattatgcaatcttcg (SEQ ID NO: 11) (AGGCACAGCCATTATGCAATCTTCG; all phosphorodiamidate morpholino (PMO)) |  |  |  |  |  |  |  | 87.7%

— patent US9000027B2, “Chk1 suppresses a caspase-2 apoptotic response to DNA damage that bypasses p53, bcl-2 and caspase-3” (Dana-Farber Cancer Institute, Inc., priority 2008, dated 2015)
